We go through four compounds from patent US5656637A, “Thiazole derivatives” (Yamanouchi Pharmaceutical Co., Ltd., priority 1990, dated 1997).

Where two headings read alike, the source gives them in different places.

Assay [1] has as its target T1, 5-HT3 receptor (Rattus norvegicus, UniProt P35563).
T1 construct: Male Wistar rats, 9 weeks old, were anesthetized with urethane; from tissue; host or cells: whole animal in vivo: anesthetized male Wistar rat (endogenous receptor; tissue not given)
T1 sequence (P35563 24-483): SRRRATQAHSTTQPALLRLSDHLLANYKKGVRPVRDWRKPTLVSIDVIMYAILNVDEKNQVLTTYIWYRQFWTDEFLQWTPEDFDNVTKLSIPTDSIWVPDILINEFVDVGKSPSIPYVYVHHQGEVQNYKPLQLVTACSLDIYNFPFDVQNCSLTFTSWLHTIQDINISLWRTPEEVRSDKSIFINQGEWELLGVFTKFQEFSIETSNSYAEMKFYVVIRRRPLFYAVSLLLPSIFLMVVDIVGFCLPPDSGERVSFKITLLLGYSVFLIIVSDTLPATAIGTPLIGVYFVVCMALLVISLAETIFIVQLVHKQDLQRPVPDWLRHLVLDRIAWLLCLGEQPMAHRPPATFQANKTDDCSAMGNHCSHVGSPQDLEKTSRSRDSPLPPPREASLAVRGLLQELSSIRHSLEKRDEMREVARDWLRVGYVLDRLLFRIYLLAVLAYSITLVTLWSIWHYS
Nature of the assay: 5-HT3 receptor stimulating action (Bezold-Jarisch reflex evoking action) in anesthetized rat, i.v. Type of assay: in vivo, rat (male Wistar). The note with it: for ED50: iv, read-out: BJ reflex evoking activity ED50. As for the experimental part:
Male Wistar rats, 9 weeks old, were anesthetized with urethane 1 g/kg i.p. and the blood pressure and the heart rate were determined under artificial ventilation.
1) 5-HT3 receptor stimulating action (Bezold-Jarisch reflex evoking action)

In assay [2] the target is T1, 5-HT3 receptor. In words: Effects of 5-HT3 receptor antagonists on the action of the compound of the present invention (decreases in heart rate and blood pressure). The class given is in vivo, rat (male Wistar). The note with it: GR38032F 30 μg/kg i.v. or ICS 205-930 0.1-1 μg/kg i.v., 10 minutes before the compound of the present invention. As to the method: Male Wistar rats, 9 weeks old, were anesthetized with urethane 1 g/kg i.p. and the blood pressure and the heart rate were determined under artificial ventilation. […] In addition, it was confirmed by using 5-HT3 receptor antagonists that the changes caused by administration of the compound of the present invention were 5-HT3 receptor-mediated responses.
2) Effects of 5-HT3 receptor antagonists on the action of the compound of the present invention
GR38032F (30 μg/kg i.v.) or ICS 205-930 (0.1-1 μg/kg i.v.), 10 minutes before administration of the compound of the present invention.

Usually ED50 stands for the dose at which the effect has come halfway, by size or by number of responders. In the case of `Cc1[nH]c2ccc(O)cc2c1CCN` [2-Methylserotonin, 2-methylserotonin], in assay [1] (i.v., anesthetized rat), the “BJ reflex evoking activity Emax (maximal bradycardiac response)” value came out at 259.0 beats/min. The median effective dose (ED50) in assay [1] (rat) worked out at 0.0374 mg/kg.

Consider `COc1ccccc1Nc1nc2c(s1)CN(C)CC2.O=C(O)/C=C/C(=O)O` [Example 1, 2-(o-methoxyanilino)-5-methyl-4,5,6,7-tetrahydrothiazolo[5,4-c]pyridine fumarate], for which the “BJ reflex evoking activity Emax (maximal bradycardiac response)” value in assay [1] (i.v., anesthetized rat) is listed as 205.8 beats/min. For the same compound, the “Bezold-Jarisch reflex evoking activity, potency relative to serotonin” value in assay [1] (i.v., rat, versus serotonin) is reported as “about 5 fold”. Moreover, the median effective dose (ED50) in assay [1] (anesthetized rat) amounted to 0.00301 mg/kg.

As to `CN1C2CCC1CC(OC(=O)c1c[nH]c3ccccc13)C2` (stereo not shown) [ICS 205-930], the “inhibition by 5-HT3 receptor antagonist of the decreases in heart rate and blood pressure induced by the compound of the present invention” value in assay [2] is reported as “competitively inhibited”.

Turning to `Cc1nccn1CC1CCc2c(c3ccccc3n2C)C1=O` (racemic) [GR38032F], the “inhibition by 5-HT3 receptor antagonist of the decreases in heart rate and blood pressure induced by the compound of the present invention” value in assay [2] is given as “competitively inhibited”.
